According to PubChem BioAssay AID1963432 (Molecular Pharmacology Branch, DTP, NCI, 2024):
Blank lines part the entries; values can stand above or below the compound they belong to.

System: SYO-1 complex spheroid growth, percent test/control
Test: Anticancer human tumor SYO-1 cell line growth inhibition [Asc];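 further: compound exposure lasted 7 days after spheroids grew 3 days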;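 on viability, T/C: 100% = DMSO vehicle control viability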
Conditions: for IC50: curve of first compound; for viability, T/C: stronger effect = lower value
How it was run: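 Complex spheroids combining tumor cells with HUVEC endothelial cells and human MSCs, at 37 degrees C, 5% CO2; agents tested alone or combined, half-log dilutions from at or near clinical Cmax, or 10 microM if Cmax unknown.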

[1] = second compound 0.0316 µM, first compound 0.0316 µM
[2] = second compound 0.0316 µM, first compound 0.1 µM
[3] = second compound 0.0316 µM, first compound 0.316 µM
[4] = second compound 0.0316 µM, first compound 1 µM
[5] = second compound 0.1 µM, first compound 0.0316 µM
[6] = second compound 0.1 µM, first compound 0.1 µM
[7] = second compound 0.1 µM, first compound 0.316 µM
[8] = second compound 0.1 µM, first compound 1 µM
[9] = second compound 0.316 µM, first compound 0.0316 µM
[10] = second compound 0.316 µM, first compound 0.1 µM
[11] = second compound 0.316 µM, first compound 0.316 µM
[12] = second compound 0.316 µM, first compound 1 µM
[13] = second compound 1 µM, first compound 0.0316 µM
[14] = second compound 1 µM, first compound 0.1 µM
[15] = second compound 1 µM, first compound 0.316 µM
[16] = second compound 1 µM, first compound 1 µM
[17] = second compound 3.16 µM, first compound 0.0316 µM
[18] = second compound 3.16 µM, first compound 0.1 µM
[19] = second compound 3.16 µM, first compound 0.316 µM
[20] = second compound 3.16 µM, first compound 1 µM
[21] = second compound 10 µM, first compound 0.0316 µM
[22] = second compound 10 µM, first compound 0.1 µM
[23] = second compound 10 µM, first compound 0.316 µM
[24] = second compound 10 µM, first compound 1 µM
[25] = second compound 0.0316 µM, first compound 0.00316 µM
[26] = second compound 0.0316 µM, first compound 0.01 µM
[27] = second compound 0.1 µM, first compound 0.00316 µM
[28] = second compound 0.1 µM, first compound 0.01 µM
[29] = second compound 0.316 µM, first compound 0.00316 µM
[30] = second compound 0.316 µM, first compound 0.01 µM
[31] = second compound 1 µM, first compound 0.00316 µM
[32] = second compound 1 µM, first compound 0.01 µM

IC50 (second compound 0.0316 µM): > 10 µM | IC50 (second compound 0.1 µM): > 10 µM | IC50 (second compound 0.316 µM): > 10 µM | IC50 (second compound 1 µM): > 10 µM | IC50 (second compound 3.16 µM): > 10 µM | IC50 (second compound 10 µM): > 10 µM
Structure (SMILES): C#Cc1c(F)ccc2cc(O)cc(-c3ncc4c(N5CC6CCC(C5)N6)nc(OCC56CCCN5CC(F)C6)nc4c3F)c12 (centres undefined) + Cc1c(S(C)(=O)=O)c(-c2cc(F)cc(N3CCN(c4ccc(NS(=O)(=O)c5ccc(NC(CCN6CCC(C(=O)OCCCP(=O)(O)O)CC6)CSc6ccccc6)c(S(=O)(=O)C(F)(F)F)c5)cc4)CC3)c2)c(-c2ccc(Cl)cc2)n1C(C)C
viability, T/C [1]: 93.6% | viability, T/C [2]: 101% | viability, T/C [3]: 89.2% | viability, T/C [4]: 99.9% | viability, T/C (second compound 0.0316 µM, first compound 3.16 µM): 102% | viability, T/C (second compound 0.0316 µM, first compound 10 µM): 99.3% | viability, T/C [5]: 92.4% | viability, T/C [6]: 92.6% | viability, T/C [7]: 90.6% | viability, T/C [8]: 99.4% | viability, T/C (second compound 0.1 µM, first compound 3.16 µM): 101% | viability, T/C (second compound 0.1 µM, first compound 10 µM): 90.8% | viability, T/C [9]: 93.8% | viability, T/C [10]: 85.2% | viability, T/C [11]: 91% | viability, T/C [12]: 102% | viability, T/C (second compound 0.316 µM, first compound 3.16 µM): 99.5% | viability, T/C (second compound 0.316 µM, first compound 10 µM): 87% | viability, T/C [13]: 92.7% | viability, T/C [14]: 86.6% | viability, T/C [15]: 88.2% | viability, T/C [16]: 96.9% | viability, T/C (second compound 1 µM, first compound 3.16 µM): 96.1% | viability, T/C (second compound 1 µM, first compound 10 µM): 87% | viability, T/C [17]: 83.9% | viability, T/C [18]: 84.5% | viability, T/C [19]: 88.8% | viability, T/C [20]: 92.3% | viability, T/C (second compound 3.16 µM, first compound 3.16 µM): 85.8% | viability, T/C (second compound 3.16 µM, first compound 10 µM): 84.1% | viability, T/C [21]: 78.2% | viability, T/C [22]: 76.9% | viability, T/C [23]: 81.1% | viability, T/C [24]: 97.5% | viability, T/C (second compound 10 µM, first compound 3.16 µM): 75.8% | viability, T/C (second compound 10 µM, first compound 10 µM): 68.3%

IC50 (second compound 0.0316 µM): 0.652 µM | IC50 (second compound 0.1 µM): 0.596 µM | IC50 (second compound 0.316 µM): 0.509 µM | IC50 (second compound 1 µM): 0.452 µM | IC50 (second compound 3.16 µM): 0.3 µM | IC50 (second compound 10 µM): 0.194 µM
Structure (SMILES): COc1c(OCCCN2CCOCC2)ccc2c3n(c(=NC(=O)c4cnc(N)nc4)nc12)CCN3 + Cc1c(S(C)(=O)=O)c(-c2cc(F)cc(N3CCN(c4ccc(NS(=O)(=O)c5ccc(NC(CCN6CCC(C(=O)OCCCP(=O)(O)O)CC6)CSc6ccccc6)c(S(=O)(=O)C(F)(F)F)c5)cc4)CC3)c2)c(-c2ccc(Cl)cc2)n1C(C)C
viability, T/C [25]: 104% | viability, T/C [26]: 93.8% | viability, T/C [1]: 93.5% | viability, T/C [2]: 83.1% | viability, T/C [3]: 74.6% | viability, T/C [4]: 36.4% | viability, T/C [27]: 99.2% | viability, T/C [28]: 97% | viability, T/C [5]: 91.8% | viability, T/C [6]: 80.3% | viability, T/C [7]: 69.5% | viability, T/C [8]: 35.6% | viability, T/C [29]: 90.7% | viability, T/C [30]: 98.3% | viability, T/C [9]: 94.1% | viability, T/C [10]: 82.4% | viability, T/C [11]: 65.8% | viability, T/C [12]: 28.5% | viability, T/C [31]: 91.5% | viability, T/C [32]: 100% | viability, T/C [13]: 94.7% | viability, T/C [14]: 87.5% | viability, T/C [15]: 63.4% | viability, T/C [16]: 20.5% | viability, T/C (second compound 3.16 µM, first compound 0.00316 µM): 92.5% | viability, T/C (second compound 3.16 µM, first compound 0.01 µM): 91.1% | viability, T/C [17]: 92.3% | viability, T/C [18]: 78.1% | viability, T/C [19]: 49% | viability, T/C [20]: 11.6% | viability, T/C (second compound 10 µM, first compound 0.00316 µM): 83.2% | viability, T/C (second compound 10 µM, first compound 0.01 µM): 88.7% | viability, T/C [21]: 72.3% | viability, T/C [22]: 62% | viability, T/C [23]: 41.7% | viability, T/C [24]: 6.85%

IC50 (second compound 0.01 µM): > 0.1 µM | IC50 (second compound 0.0316 µM): > 0.1 µM | IC50 (second compound 0.1 µM): > 0.1 µM | IC50 (second compound 0.316 µM): > 0.1 µM | IC50 (second compound 1 µM): > 0.1 µM
Structure (SMILES): Cn1ncnc1[C@H]1c2n[nH]c(=O)c3cc(F)cc(c23)N[C@@H]1c1ccc(F)cc1 + CNC(C)C(=O)NC1CN(S(=O)(=O)c2cccc(S(=O)(=O)N3CCC4CCC(C(=O)NC(c5ccccc5)c5ccccc5)N4C(=O)C(NC(=O)C(C)NC)C3)c2)CCC2CCC(C(=O)NC(c3ccccc3)c3ccccc3)N2C1=O
viability, T/C (second compound 0.01 µM, first compound 0.000316 µM): 107% | viability, T/C (second compound 0.01 µM, first compound 0.001 µM): 106% | viability, T/C (second compound 0.01 µM, first compound 0.00316 µM): 103% | viability, T/C (second compound 0.01 µM, first compound 0.01 µM): 91.8% | viability, T/C (second compound 0.01 µM, first compound 0.0316 µM): 76.8% | viability, T/C (second compound 0.01 µM, first compound 0.1 µM): 82.9% | viability, T/C (second compound 0.0316 µM, first compound 0.000316 µM): 101% | viability, T/C (second compound 0.0316 µM, first compound 0.001 µM): 102% | viability, T/C [25]: 103% | viability, T/C [26]: 98.3% | viability, T/C [1]: 75.8% | viability, T/C [2]: 86.3% | viability, T/C (second compound 0.1 µM, first compound 0.000316 µM): 108% | viability, T/C (second compound 0.1 µM, first compound 0.001 µM): 93.6% | viability, T/C [27]: 96.8% | viability, T/C [28]: 93.4% | viability, T/C [5]: 75.4% | viability, T/C [6]: 86.3% | viability, T/C (second compound 0.316 µM, first compound 0.000316 µM): 112% | viability, T/C (second compound 0.316 µM, first compound 0.001 µM): 103% | viability, T/C [29]: 95% | viability, T/C [30]: 92.1% | viability, T/C [9]: 66.8% | viability, T/C [10]: 86.4% | viability, T/C (second compound 1 µM, first compound 0.000316 µM): 98.2% | viability, T/C (second compound 1 µM, first compound 0.001 µM): 107% | viability, T/C [31]: 96.3% | viability, T/C [32]: 93.6% | viability, T/C [13]: 78.9% | viability, T/C [14]: 85.7%
